In the supplement of paper PMC10307832:

Key:
Test in all cases: relative viability (nuclei count vs DMSO), 5 days (fraction); higher = more cells survive
[1] = compound: CC1=C(C(=NN1)C)CC2=C(C3=C(S2)N(C(=O)N(C3=O)C)CC(C)C)C(=O)N4C[C@@H](CO4)O + CC(=O)Nc1cccc(-n2c(=O)n(C3CC3)c(=O)c3c(Nc4ccc(I)cc4F)n(C)c(=O)c(C)c32)c1 [Trametinib] (partner 0.02 µM)
How it was run: (§1)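 Cells from lung cancer lines were seeded into 1536-well plates and, one day later, dosed by pin tool. Treatments were either a single drug or a fixed dose of an anchor drug with five library-drug doses (not always all listed) in √10 steps. After 5 days, nuclei were stained in a one-step fixation (final 0.05% Triton X-100, 1% formaldehyde, 1 ug/ml Hoechst) and counted on 4× images, and relative viability is the treated-to-vehicle nuclei ratio, as the median of duplicate plates.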

IDH-C35 + Pictilisib = compound: Cc1ccccc1C(C(=O)NC1CCCCC1)N(C(=O)Cn1ccnc1C)c1cccc(F)c1 [IDH-C35] + CS(=O)(=O)N1CCN(Cc2cc3nc(-c4cccc5[nH]ncc45)nc(N4CCOCC4)c3s2)CC1 [Pictilisib] (partner 1 µM)
How it was run: as §1

[2] = compound: CC1=C(C(=NN1)C)CC2=C(C3=C(S2)N(C(=O)N(C3=O)C)CC(C)C)C(=O)N4C[C@@H](CO4)O + CCNC(=O)c1noc(-c2cc(C(C)C)c(O)cc2O)c1-c1ccc(CN2CCOCC2)cc1 [Luminespib] (partner 0.01 µM)
How it was run: as §1

IDH-C35 + Olaparib = compound: Cc1ccccc1C(C(=O)NC1CCCCC1)N(C(=O)Cn1ccnc1C)c1cccc(F)c1 [IDH-C35] + O=C(c1cc(Cc2n[nH]c(=O)c3ccccc23)ccc1F)N1CCN(C(=O)C2CC2)CC1 [Olaparib] (partner 8 µM)
How it was run: as §1

Cell Line	relative viability ([1]; first compound 0.0025 µM)	relative viability ([1]; first compound 0.007906 µM)	relative viability ([1]; first compound 0.025 µM)	relative viability ([1]; first compound 0.07906 µM)	relative viability ([1]; first compound 0.25 µM)	relative viability (IDH-C35 + Pictilisib; first compound 0.08 µM)	relative viability (IDH-C35 + Pictilisib; first compound 0.253 µM)	relative viability (IDH-C35 + Pictilisib; first compound 0.8 µM)	relative viability (IDH-C35 + Pictilisib; first compound 2.53 µM)	relative viability (IDH-C35 + Pictilisib; first compound 8 µM)	relative viability ([2]; first compound 0.0025 µM)	relative viability ([2]; first compound 0.007906 µM)	relative viability ([2]; first compound 0.025 µM)	relative viability ([2]; first compound 0.07906 µM)	relative viability ([2]; first compound 0.25 µM)	relative viability (IDH-C35 + Olaparib; first compound 0.08 µM)	relative viability (IDH-C35 + Olaparib; first compound 0.253 µM)	relative viability (IDH-C35 + Olaparib; first compound 0.8 µM)	relative viability (IDH-C35 + Olaparib; first compound 2.53 µM)	relative viability (IDH-C35 + Olaparib; first compound 8 µM)
ChaGo-K-1	0.94	0.871	0.889	0.918	0.916	0.451	0.71	0.742	0.681	0.918	0.671	0.597	0.583	0.677	0.546	0.432	0.432	0.438	0.452	0.42
EBC-1	–	–	–	–	–	0.397	0.414	0.339	0.353	0.377	–	–	–	–	–	0.702	0.689	0.724	0.778	0.703
EKVX	0.397	0.339	0.353	0.246	0.372	0.42	0.459	0.371	0.423	0.475	0.948	0.955	0.852	0.764	0.928	0.859	0.892	0.836	0.918	0.802
EMC-BAC-2	0.902	0.904	0.938	0.892	0.986	0.493	0.55	0.51	0.487	0.521	1.17	1.23	1.2	1.32	1.29	0.496	0.509	0.472	0.507	0.482
EPLC-272H	0.317	0.236	0.31	0.295	0.352	0.369	0.338	0.283	–	0.329	0.738	0.197	0.235	0.498	0.417	0.836	0.866	1.24	0.904	0.603
H3255	0.602	0.693	0.671	0.617	0.681	0.454	0.546	0.474	0.503	0.424	0.953	1.04	0.861	0.944	0.887	0.554	0.576	0.579	0.63	0.553
HARA	1.14	0.991	0.759	0.662	0.782	0.369	0.455	0.483	0.415	0.328	0.847	1.12	0.726	0.543	0.933	0.835	1.03	0.742	0.725	0.845
HCC-15	0.411	0.365	0.378	0.407	0.415	0.719	0.727	0.682	0.618	0.645	0.378	0.518	0.236	0.43	0.337	0.712	0.733	0.724	–	0.667
HCC-44	1.11	1.08	1.1	1.05	1.05	0.537	0.593	0.551	0.674	0.632	0.97	1.11	1.03	0.958	1.38	0.987	0.927	0.988	0.964	0.923
